Data on four molecules can be found in PubChem BioAssay AID1259407 (Chemical Carcinogenesis Research Information System (CCRIS), 2018).

The data set deals with CCRIS mutagenicity, Ames/micronucleus/aberration tests. The experiment in a line: CCRIS mutagenicity studies.
[1] abbreviates: Test System: AMES SALMONELLA TYPHIMURIUM, Strain/Indicator: TA100, Metabolic Activation: NONE, Method: PREINCUBATION

Each structure is given as a SMILES string. Activity calls are given as the source filed them. The rule behind the calls is not given here.

On to `CC(=O)Nc1ccc(-c2ccc(NC(C)=O)cc2)cc1`, for which the mutagenic call (Test System: AMES SALMONELLA TYPHIMURIUM, Strain/Indicator: TA1538, Metabolic Activation: GUINEA PIG, LIVER, HEPATOCYTES, Method: PREINCUBATION) is “active; positive”; the mutagenic call (Test System: AMES SALMONELLA TYPHIMURIUM, Strain/Indicator: TA1538, Metabolic Activation: GUINEA PIG, LIVER, S-9, ACETYL-COA (0.1 OR 1 MILLIMOLAR), Method: PREINCUBATION) is “active; positive”; the mutagenic call (Test System: AMES SALMONELLA TYPHIMURIUM, Strain/Indicator: TA1538, Metabolic Activation: GUINEA PIG, LIVER, S-9, Method: PREINCUBATION) is “active; positive”; the mutagenic call (Test System: AMES SALMONELLA TYPHIMURIUM, Strain/Indicator: TA1538, Metabolic Activation: HAMSTER, LIVER, HEPATOCYTES, Method: PREINCUBATION) was “active; positive”; the mutagenic call (Test System: AMES SALMONELLA TYPHIMURIUM, Strain/Indicator: TA1538, Metabolic Activation: HAMSTER, LIVER, S-9, ACETYL-COA (0.1 OR 1 MILLIMOLAR), Method: PREINCUBATION) was “active; positive”; the mutagenic call (Test System: AMES SALMONELLA TYPHIMURIUM, Strain/Indicator: TA1538, Metabolic Activation: HAMSTER, LIVER, S-9, Method: PREINCUBATION) is “active; positive”. Besides, the mutagenic call is, setting by setting: (Test System: AMES SALMONELLA TYPHIMURIUM, Strain/Indicator: TA1538, Metabolic Activation: RAT, LIVER, HEPATOCYTES, Method: PREINCUBATION) “active; positive”; (Test System: AMES SALMONELLA TYPHIMURIUM, Strain/Indicator: TA1538, Metabolic Activation: RAT, LIVER, S-9, ACETYL-COA (0.1 OR 1 MILLIMOLAR), Method: PREINCUBATION) “active; positive”; (Test System: AMES SALMONELLA TYPHIMURIUM, Strain/Indicator: TA1538, Metabolic Activation: RAT, LIVER, S-9, Method: PREINCUBATION) “active; positive”; (Test System: Ames Salmonella typhimurium, Strain/Indicator: TA102, Metabolic Activation: None, Method: Preincubation) “inactive; negative”; (Test System: Ames Salmonella typhimurium, Strain/Indicator: TA102, Metabolic Activation: Rat, liver, S-9, Aroclor 1254, 4%, Method: Preincubation) “inactive; negative”.
As to `Cc1cc(=O)oc2cc3c(cc12)C1(C)OOC1(C)O3` (stereo not given), the mutagenic call under setting [1] is “active; positive”.
For `COc1c(Cl)c(Cl)c(Cl)c(Cl)c1Cl`, the mutagenic call (Test System: AMES SALMONELLA TYPHIMURIUM, Strain/Indicator: TA98, Metabolic Activation: HAMSTER, LIVER, S-9, AROCLOR 1254 (10%), Method: PREINCUBATION) was “inactive; negative”; the mutagenic call (Test System: AMES SALMONELLA TYPHIMURIUM, Strain/Indicator: TA98, Metabolic Activation: MOUSE, LIVER, S-9, AROCLOR 1254, Method: PREINCUBATION) is “inactive; negative”; the mutagenic call (Test System: AMES SALMONELLA TYPHIMURIUM, Strain/Indicator: TA98, Metabolic Activation: RAT, LIVER, S-9, AROCLOR 1254 (10%), Method: PREINCUBATION) was “inactive; negative”; the mutagenic call (Test System: AMES SALMONELLA TYPHIMURIUM, Strain/Indicator: TA100, Metabolic Activation: HAMSTER, LIVER, S-9, AROCLOR 1254 (10%), Method: PREINCUBATION) was “inactive; negative”; the mutagenic call (Test System: AMES SALMONELLA TYPHIMURIUM, Strain/Indicator: TA100, Metabolic Activation: MOUSE, LIVER, S-9, AROCLOR 1254, Method: PREINCUBATION) is “inactive; negative”; the mutagenic call under setting [1] is “inactive; negative”. Moreover, the mutagenic call runs as follows: (Test System: AMES SALMONELLA TYPHIMURIUM, Strain/Indicator: TA100, Metabolic Activation: RAT, LIVER, S-9, AROCLOR 1254 (10%), Method: PREINCUBATION) “inactive; negative”; (Test System: AMES SALMONELLA TYPHIMURIUM, Strain/Indicator: TA1535, Metabolic Activation: HAMSTER, LIVER, S-9, AROCLOR 1254 (10%), Method: PREINCUBATION) “inactive; negative”; (Test System: AMES SALMONELLA TYPHIMURIUM, Strain/Indicator: TA1535, Metabolic Activation: NONE, Method: PREINCUBATION) “inactive; negative”; (Test System: AMES SALMONELLA TYPHIMURIUM, Strain/Indicator: TA1535, Metabolic Activation: RAT, LIVER, S-9, AROCLOR 1254 (10%), Method: PREINCUBATION) “inactive; negative”; (Test System: AMES SALMONELLA TYPHIMURIUM, Strain/Indicator: TA1537, Metabolic Activation: HAMSTER, LIVER, S-9, AROCLOR 1254 (10%), Method: PREINCUBATION) “inactive; negative”; (Test System: AMES SALMONELLA TYPHIMURIUM, Strain/Indicator: TA1537, Metabolic Activation: NONE, Method: PREINCUBATION) “active; positive”. Further, the mutagenic call (Test System: AMES SALMONELLA TYPHIMURIUM, Strain/Indicator: TA1537, Metabolic Activation: RAT, LIVER, S-9, AROCLOR 1254 (10%), Method: PREINCUBATION) is “inactive; negative”; the mutagenic call (Test System: E. COLI, Strain/Indicator: WP2, Metabolic Activation: MOUSE, LIVER, S-9, AROCLOR 1254, Method: PREINCUBATION) is “inactive; negative”; the mutagenic call (Test System: E. COLI, Strain/Indicator: WP2, Metabolic Activation: NONE, Method: PREINCUBATION) is “inactive; negative”; the mutagenic call (Test System: E. COLI, Strain/Indicator: WP2 UVRA, Metabolic Activation: MOUSE, LIVER, S-9, AROCLOR 1254, Method: PREINCUBATION) was “inactive; negative”; the mutagenic call (Test System: E. COLI, Strain/Indicator: WP2 UVRA, Metabolic Activation: NONE, Method: PREINCUBATION) was “inactive; negative”; the mutagenic call (Test System: MOUSE LYMPHOMA, Strain/Indicator: L5178Y (TK+/TK-), Metabolic Activation: NONE, Method: SUSPENSION/PLATE) was “inactive; negative”. Also, the mutagenic call (Test System: MOUSE LYMPHOMA, Strain/Indicator: L5178Y (TK+/TK-), Metabolic Activation: RAT, LIVER, S-9, AROCLOR 1254, Method: SUSPENSION/PLATE) was “active; positive”.
Take `CCOC(=O)[C@H]1O[C@@H]1C(=O)N[C@@H](CC(C)C)C(=O)NCCC(C)C`: the mutagenic call by setting is: (Test System: AMES SALMONELLA TYPHIMURIUM, Strain/Indicator: TA98, Metabolic Activation: NONE, Method: PREINCUBATION) “inactive; negative”; (Test System: AMES SALMONELLA TYPHIMURIUM, Strain/Indicator: TA98, Metabolic Activation: NONE, Method: STANDARD PLATE) “inactive; negative”; (Test System: AMES SALMONELLA TYPHIMURIUM, Strain/Indicator: TA98, Metabolic Activation: RAT, LIVER, S-9, Method: PREINCUBATION) “inactive; negative”; (Test System: AMES SALMONELLA TYPHIMURIUM, Strain/Indicator: TA98, Metabolic Activation: RAT, LIVER, S-9, Method: STANDARD PLATE) “inactive; negative”; under setting [1], “inactive; negative”; (Test System: AMES SALMONELLA TYPHIMURIUM, Strain/Indicator: TA100, Metabolic Activation: NONE, Method: STANDARD PLATE) “inactive; negative”. The mutagenic call reads like this: (Test System: AMES SALMONELLA TYPHIMURIUM, Strain/Indicator: TA100, Metabolic Activation: RAT, LIVER, S-9, Method: PREINCUBATION) “inactive; negative”; (Test System: AMES SALMONELLA TYPHIMURIUM, Strain/Indicator: TA100, Metabolic Activation: RAT, LIVER, S-9, Method: STANDARD PLATE) “inactive; negative”; (Test System: AMES SALMONELLA TYPHIMURIUM, Strain/Indicator: TA1535, Metabolic Activation: NONE, Method: STANDARD PLATE) “inactive; negative”; (Test System: AMES SALMONELLA TYPHIMURIUM, Strain/Indicator: TA1535, Metabolic Activation: RAT, LIVER, S-9, Method: STANDARD PLATE) “inactive; negative”; (Test System: AMES SALMONELLA TYPHIMURIUM, Strain/Indicator: TA1537, Metabolic Activation: NONE, Method: STANDARD PLATE) “inactive; negative”; (Test System: AMES SALMONELLA TYPHIMURIUM, Strain/Indicator: TA1537, Metabolic Activation: RAT, LIVER, S-9, Method: STANDARD PLATE) “inactive; negative”. Further, the mutagenic call (Test System: E. COLI, Strain/Indicator: WP2 UVRA, Metabolic Activation: NONE, Method: STANDARD PLATE) was “inactive; negative” and the mutagenic call (Test System: E. COLI, Strain/Indicator: WP2 UVRA, Metabolic Activation: RAT, LIVER, S-9, Method: STANDARD PLATE) was “inactive; negative”.
